Assay results from article PMC11093748, “De novo identification of CD4^+ T cell epitopes” (Nature Methods, 2024).

What was measured:
Experiment in all cases: I-Ag7 SABR-II library screen, enrichment score
Type in all cases: cell-based, mouse
TCR2 = details: sheet TCR2-PZ44; ES = TCRObserved - TCRPredicted; TCRPredicted = LIBObserved x SLOPE + INTERCEPT; SLOPE 0.908797, INTERCEPT 2.23811e-5
How it was run: (§1)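 Enrichment score: the difference between each epitope's sequenced abundance in sorted cells and its abundance predicted from triplicate unsorted-library reads by linear regression. Sorts took the top 1–2% GFP⁺CD69⁺ NFAT–GFP Jurkat reporters after co-culture of TCR⁺ Jurkats with the I-Ag7 SABR-II epitope library, three replicates per TCR.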

TCR21B = details: TCR_Mean minus PREDICTED_TCR (slope 0.954708, intercept 1.11146e-5 on LIB_Mean), TCR 21B, run PZ56
How it was run: as §1

TCR23 = test system: TCR23
How it was run: as §1

TCR8 = details: TCR_Mean minus PREDICTED_TCR (from LIB_Mean, SLOPE 0.946603, INTERCEPT 1.31036e-5), PZ47
How it was run: as §1

TCR36 = details: TCR_Mean minus PREDICTED_TCR (slope 0.914754, intercept 2.09193e-5 on LIB_Mean), TCR 36, run PZ57
How it was run: as §1

TCR38 = details: I-Ag7 SABR-II library PZ101, CD4 TCR 38; TCR_Mean of 3 replicates minus PREDICTED_TCR (slope 0.968274, intercept 7.78554e-6)
How it was run: as §1

TCR26 = details: TCR_Mean minus PREDICTED_TCR (slope 0.971972, intercept 6.87806e-6 on LIB_Mean), TCR 26, run PZ56
How it was run: as §1

TCR9 = details: TCR_Mean minus PREDICTED_TCR (from LIB_Mean, SLOPE 0.950453, INTERCEPT 1.21587e-5), PZ47
How it was run: as §1

TCR13 = test system: TCR13
How it was run: as §1

TCR7 = test system: TCR7
How it was run: as §1

TCR17D = details: TCR_Mean minus PREDICTED_TCR (from LIB_Mean, SLOPE 0.965121, INTERCEPT 8.55929e-6), PZ52
How it was run: as §1

[1] = I-Ag7 library, one biological experiment
[2] = TCR_Mean minus PREDICTED_TCR (slope 0.987149, intercept 3.15366e-6 on LIB_Mean), TCR 23, run PZ56
[3] = TCR13, TCR_Mean minus PREDICTED_TCR (from LIB_Mean, SLOPE 0.90397, INTERCEPT 2.35655e-5), PZ51
[4] = sheet TCR7-PZ47, ES = TCRObserved - TCRPredicted, TCRPredicted = LIBObserved x SLOPE + INTERCEPT, SLOPE 0.961246, INTERCEPT 9.5102e-6

Sequence	Enrichment score (TCR2)	Enrichment score (TCR21B)	Enrichment score (TCR23; [1])	Enrichment score (TCR23; [2])	Enrichment score (TCR8)	Enrichment score (TCR36)	Enrichment score (TCR38)	Enrichment score (TCR26)	Enrichment score (TCR9)	Enrichment score (TCR13; [1])	Enrichment score (TCR13; [3])	Enrichment score (TCR7; [1])	Enrichment score (TCR7; [4])	Enrichment score (TCR17D)
AAVEEGIVAGGGVTLL	9.944e-5	-9.242e-5	-9.242e-5	8.213e-5	-2.679e-5	-0.0001187	0.0001517	-0.0002176	-0.0001033	0.0001546	0.0001546	1.142e-5	1.142e-5	9.065e-5
AEKVRNLPAGHGLNAQ	0.0001311	8.732e-6	8.732e-6	0.0001238	-5.38e-5	-6.905e-5	-3.923e-5	4.292e-6	2.252e-5	0.000137	0.000137	5.397e-5	5.397e-5	-0.00018
AGGVAVIKAGAATEV	-1.7e-5	-9.6548e-5	-9.6548e-5	-7.52e-5	-5.809e-5	-1.016e-5	4.352e-5	-8.754e-5	-1.065e-5	0.0001675	0.0001675	-2.964e-5	-2.964e-5	-6.024e-5
AKAAVEEGIVAGGGV	-6.466e-5	-2.11e-5	-2.11e-5	-9.2e-5	4.499e-5	-3.854e-5	-6.1876e-5	-6.247e-5	0.0002844	0.0001008	0.0001008	0.0001251	0.0001251	-0.0001083
ALVREGLRNVAAGANP	-2.238e-5	-1.174e-5	-1.174e-5	-3.805e-6	-1.329e-5	-2.092e-5	-7.786e-6	-7.519e-6	-9.186e-6	-2.357e-5	-2.357e-5	-9.699e-6	-9.699e-6	-8.6588e-6
